Marks after values point to notes of the source that are not given here.
Assays:
Type in all cases: in vivo
[1] = test system: Botrytis cinerea (the causal agent of tomato Botrytis); assay: Test C: tomato Botrytis, preventive spray on tomato seedlings, visual disease rating; settings: for Test C rating (100 = 100% disease control, 0 = no disease control relative to the controls): tomato Botrytis, preventive spray on tomato seedlings
Method in brief: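 Preventive test: B. cinerea spore inoculation one day after tomato seedlings were sprayed to run-off with compound suspended in 50/50 acetone–water plus 250 ppm surfactant. Plants held 48 h at 20° C in saturated air, then 3 days at 24° C; visual ratings scored 100 (full control) to 0 versus controls; some entries used 40 ppm.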

[2] = test system: Blumeria graminis f. sp. tritici (also known as Erysiphe graminis f. sp. tritici, the causal agent of wheat powdery mildew); assay: Test D: wheat powdery mildew, preventive spray on wheat seedlings, visual disease rating; settings: for Test D rating (100 = 100% disease control, 0 = no disease control relative to the controls): wheat powdery mildew, preventive spray on wheat seedlings
Method in brief: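 Preventive test: seedlings sprayed to run-off and inoculated with powdery mildew spores one day later. Suspensions were made in 50/50 acetone/water with 250 ppm Trem 014 surfactant (200 ppm equals 800 g/ha). Visual ratings after 8 days at 20 °C give percent disease control versus controls.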

[3] = test system: Septoria tritici (the causal agent of wheat leaf blotch); assay: Test B: wheat leaf blotch, preventive spray on wheat seedlings, visual disease rating; settings: for Test B rating (100 = 100% disease control, 0 = no disease control relative to the controls): wheat leaf blotch, preventive spray on wheat seedlings
Method in brief: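 Preventive test: Septoria tritici spores applied one day after run-off spraying of seedlings (200 ppm equals 800 g/ha; some tests 40 ppm). After 48 h at 24 °C saturated atmosphere and 19 days at 20 °C, disease scored visually as % control relative to untreated plants.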

[4] = test system: Puccinia recondite f. sp. tritici (the causal agent of wheat leaf rust); assay: Test A: wheat leaf rust, preventive spray on wheat seedlings, visual disease rating; settings: for Test A rating (100 = 100% disease control, 0 = no disease control relative to the controls): wheat leaf rust, preventive spray on wheat seedlings
Method in brief: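 This was a preventive test: Puccinia recondite f. sp. tritici inoculum was applied one day after compound spray to run-off. Test suspensions were made in 50/50 acetone/water with 250 ppm surfactant, at 200 ppm (800 g/ha equivalent) or 40 ppm. Visual ratings of % disease control relative to controls were made after 24 h of saturated humidity and 7 growth-chamber days, all at 20° C.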

[5] = asterisk: 40 ppm test suspension
[6] = no asterisk (standard test suspension concentration, not 40 ppm)
[7] = no asterisk: standard test suspension concentration, 100 = 100% disease control, 0 = no control relative to controls

| SMILES | Test C rating (100 = 100% disease control, 0 = no disease control relative to the controls) [1, 5] | Test D rating (100 = 100% disease control, 0 = no disease control relative to the controls) [2, 5] | Test B rating (100 = 100% disease control, 0 = no disease control relative to the controls) [3, 5] | Test A rating (100 = 100% disease control, 0 = no disease control relative to the controls) [4, 5] | Test C rating (100 = 100% disease control, 0 = no disease control relative to the controls) [1, 6] | Test D rating (100 = 100% disease control, 0 = no disease control relative to the controls) [2, 6] | Test B rating (100 = 100% disease control, 0 = no disease control relative to the controls) [3, 6] | Test A rating (100 = 100% disease control, 0 = no disease control relative to the controls) [4, 6] | further results |
| --- | --- | --- | --- | --- | --- | --- | --- | --- | --- |
| Cc1nc(Cl)n(-c2c(F)cccc2F)c1C(O)c1c(F)cccc1F (racemic) [compound 24] | 100* % | 91* % | 100* % | 100* % |  |  |  |  |  |
| OC(c1ccc(F)cc1Cl)c1c(Br)nc(Cl)n1-c1ccc(F)cc1Cl (racemic) [compound 218] | 100* % | 89* % | 100* % | 100* % |  |  |  |  |  |
| Cc1nc(Cl)n(-c2ccc(F)cc2F)c1C(O)c1ccc(F)cc1F (stereo not drawn) [compound 162] |  |  |  |  | 100% | 98% | 100% | 100% |  |
| OC(c1ccc(F)cc1F)c1c(Cl)nc(Cl)n1-c1c(F)cc(Cl)cc1F (stereo not drawn) [compound 154] | 100* % | 89* % | 100* % | 100* % |  |  |  |  |  |
| Cc1ncc(C(O)c2cccnc2F)n1-c1c(F)cc(F)cc1F (stereo not drawn) [compound 413] |  |  |  |  |  |  |  |  | Test C rating (% disease control, tomato Botrytis) [1, 7]: 0%; Test D rating (% disease control, wheat powdery mildew) [2, 7]: 0%; Test B rating (% disease control, wheat leaf blotch) [3, 7]: 98%; Test A rating (% disease control, wheat leaf rust) [4, 7]: 88% |
| Cc1nc(Cl)n(-c2c(F)cc(F)cc2Br)c1C(O)c1ccc(F)cc1F (single isomer, unassigned) [compound 16] |  |  |  |  | 100% | 100% | 100% | 100% |  |
| Cc1ncc(C(O)c2ccc(F)cc2)n1-c1c(F)cccc1F (stereo not drawn) [compound 132] |  |  |  |  | 41% | 0% | 100% | 99% |  |
| Cc1nc(Cl)c(C(O)c2c(F)cccc2F)n1-c1c(F)cccc1F (stereo not drawn) [compound 105] | 85* % | 64* % | 100* % | 99* % |  |  |  |  |  |
| OC(c1ccc(F)cc1F)c1c(Cl)nc(Cl)n1-c1ccc(F)cc1Cl (single isomer, unassigned) [compound 20] |  |  |  |  | 100% | 100% | 100% | 100% |  |
| COc1ccc(C(O)c2c(C)nc(Cl)n2-c2c(F)cccc2F)c(Cl)c1 (racemic) [compound 221] | 99* % | 97* % | 100* % | 100* % |  |  |  |  |  |
| Cc1nc(Cl)c(C(O)c2c(F)cc(Cl)cc2F)n1-c1ccc(F)cc1Cl (stereo not drawn) [compound 156] |  |  |  |  | 16% | 0% | 92% | 98% |  |
| Cc1nc(Br)c(C(O)c2c(F)cc(F)cc2F)n1-c1ccc(F)cc1Br (stereo not drawn) [compound 176] |  |  |  |  | 100% | 96% | 100% | 100% |  |

Source: patent US20130143929A1, “FUNGICIDAL IMIDAZOLES” (EI DU PONT DE NEMOURS AND COMPANY, priority 2010, published 2013)
